Consider four compounds from article PMC7570665 (2020).

A value given as a limit tells only on which side of the number the result lay.

The subject of assay [1] is T10-7.t5 (XNA, aptamer, all-TNA (alpha-L-threose nucleic acid, 3'-2'); 7-deaza-7-phenyl-guanine in place of every guanine) CTTTTAAGAACCGGACGAACTAGAATATTATATTTT
Description: competitive equilibrium filtration. The conditions noted are these: 5 mM MgCl2, 300 mM NaCl; 20 mM Tris-HCl pH 7.6; displaces γ-32P-ATP; 4 °C in methods, 24 °C in legend; highest concentration not stated.

Assay [2] has the same test system. The assay can be described thus: equilibrium filtration, γ-32P-ATP, Hill fit. The following applies: 5 mM MgCl2, 300 mM NaCl; 20 mM Tris-HCl pH 7.6; 4 °C in methods, 24 °C in legend; apparent.

As for `Nc1ccn([C@@H]2O[C@H](COP(=O)(O)OP(=O)(O)OP(=O)(O)O)[C@@H](O)[C@H]2O)c(=O)n1`, the Kd in assay [1] is > 2000 µM.

With `Nc1nc2c(ncn2[C@@H]2O[C@H](COP(=O)(O)OP(=O)(O)OP(=O)(O)O)[C@@H](O)[C@H]2O)c(=O)[nH]1`, in assay [1], the Kd was > 2000 µM.

For the compound `Nc1ncnc2c1ncn2[C@@H]1O[C@H](COP(=O)(O)OP(=O)(O)OP(=O)(O)O)[C@@H](O)[C@H]1O`, in assay [2], the KD was found to be 22 ± 5 µM.

As for `O=c1ccn([C@@H]2O[C@H](COP(=O)(O)OP(=O)(O)OP(=O)(O)O)[C@@H](O)[C@H]2O)c(=O)[nH]1`, the Kd in assay [1] was > 2000 µM.

For orientation: Kd means a measure of binding affinity in units of concentration. Read a low Kd as a tighter complex.
